# According to ChEMBL document CHEMBL1127135, “Synthesis and biological properties of 3-[()-2-(1,2,3-Thiadiazolyl)ethenyl]-substituted cephalosporins and related compounds: new oral cephalosporins” (Bioorg Med Chem Lett, 1993):
# Experiments:
# [1] = Evaluated for pharmacokinetic parameter half-life in mouse at the dose 20 mg/kg; assay type: ADME, organism-based; parameters: dose 20 mg/kg; details: in vivo
# [2] = Evaluated for pharmacokinetic parameter Cmax in rat at the dose 50 mg/kg; assay type: ADME, organism-based; parameters: dose 50 mg/kg; details: in vivo
# [3] = Evaluated for pharmacokinetic parameter Cmax in rabbit at the dose 20 mg/kg; assay type: ADME, organism-based, Oryctolagus cuniculus; parameters: dose 20 mg/kg; details: in vivo
# [4] = Evaluated for pharmacokinetic parameter urine recovery in rat at the dose 50 mg/kg ( 0-24 hr ); assay type: ADME, organism-based; parameters: dose 50 mg/kg; details: read-out: UR
# [5] = Evaluated for pharmacokinetic parameter area under curve in mouse at the dose 20 mg/kg (0-4 hr); assay type: ADME, organism-based; parameters: time < 4 hr, dose 20 mg/kg; details: in vivo
# [6] = Evaluated for pharmacokinetic parameter Cmax in mouse at the dose 20 mg/kg; assay type: ADME, organism-based; parameters: dose 20 mg/kg; details: in vivo
# [7] = Evaluated for pharmacokinetic parameter area under curve in rat at the dose 50 mg/kg ( 0-8 hr ); assay type: ADME, organism-based; parameters: time < 8 hr, dose 50 mg/kg; details: in vivo
# [8] = Evaluated for pharmacokinetic parameter half-life in rabbit at the dose 20 mg/kg; assay type: ADME, organism-based, Oryctolagus cuniculus; parameters: dose 20 mg/kg; details: in vivo
# [9] = Evaluated for pharmacokinetic parameter tmax in rat at the dose 50 mg/kg; assay type: ADME, organism-based; parameters: dose 50 mg/kg; details: in vivo
# [10] = Evaluated for pharmacokinetic parameter urine recovery in mouse at the dose 20 mg/kg ( 0-24 hr ); assay type: ADME, organism-based; parameters: dose 20 mg/kg; details: read-out: UR
# [11] = Evaluated for pharmacokinetic parameter urine recovery in rabbit at the dose 20 mg/kg ( 0-24 hr ); assay type: ADME, organism-based, Oryctolagus cuniculus; parameters: dose 20 mg/kg; details: read-out: UR
# [12] = Evaluated for pharmacokinetic parameter area under curve in rabbit at the dose 20 mg/kg ( 0-4 hr ); assay type: ADME, organism-based, Oryctolagus cuniculus; parameters: time < 4 hr, dose 20 mg/kg; details: in vivo
# [13] = Evaluated for pharmacokinetic parameter half-life in rat at the dose 50 mg/kg; assay type: ADME, organism-based; parameters: dose 50 mg/kg; details: in vivo
# [14] = Evaluated for pharmacokinetic parameter tmax in rabbit at the dose 20 mg/kg; assay type: ADME, organism-based, Oryctolagus cuniculus; parameters: dose 20 mg/kg; details: in vivo
# [15] = Evaluated for pharmacokinetic parameter tmax in mouse at the dose 20 mg/kg; assay type: ADME, organism-based; parameters: dose 20 mg/kg; details: in vivo
# Escherichia coli [16] = experiment: Antibacterial activity against Escherichia coli ATCC 25922 was determined; assay type: functional
# Staphylococcus aureus [17] = experiment: Antibacterial activity against Staphylococcus aureus 209P-JC was determined; assay type: functional
# Serratia marcescens = experiment: Antibacterial activity against Serratia marcescens IID 618 was determined; assay type: functional
# Escherichia coli [18] = experiment: Antibacterial activity against Escherichia coli NIHJ JC-2 was determined; assay type: functional
# Morganella morganii [19] = experiment: Antibacterial activity against Morganella morganii IID 602 was determined; assay type: functional
# Providencia rettgeri = experiment: Antibacterial activity against Providencia rettgeri IFO3850 was determined; assay type: functional
# Enterococcus hirae = experiment: Antibacterial activity against Enterococcus hirae ATCC 8043 was determined; assay type: functional
# [20] = system: Staphylococcus epidermidis; experiment: Antibacterial activity against Staphylococcus epidermidis IID 866 was determined; assay type: functional
# Klebsiella pneumoniae [21] = experiment: Antibacterial activity against Klebsiella pneumoniae IFO 3317 was determined; assay type: functional
# Proteus mirabilis = experiment: Antibacterial activity against Proteus mirabilis IFO3849 was determined; assay type: functional
# Micrococcus luteus [22] = experiment: Antibacterial activity against Micrococcus luteus ATCC 9341 was determined; assay type: functional
# Moraxella catarrhalis [23] = experiment: Antibacterial activity against M(B). catarrhalis ATCC 25238 was determined; assay type: functional
# Staphylococcus aureus [24] = experiment: Antibacterial activity against Staphylococcus aureus Smith was determined; assay type: functional
# Pseudomonas aeruginosa = experiment: Antibacterial activity against Pseudomonas aeruginosa NCTC 10490 was determined; assay type: functional
# Proteus vulgaris = experiment: Antibacterial activity against Proteus vulgaris HX-19 was determined; assay type: functional
# Enterobacter cloacae = experiment: Antibacterial activity against Enterobacter cloacae 963 was determined; assay type: functional
# Klebsiella aerogenes = experiment: Antibacterial activity against Enterobacter aerogenes IFO 13048 was determined; assay type: functional
# Staphylococcus aureus [25] = experiment: Antibacterial activity against Staphylococcus aureus ATCC 25923 was determined; assay type: functional
# Moraxella catarrhalis [26] = experiment: Antibacterial activity against M(B). catarrhalis AtCC 25238 was determined; assay type: functional
# [27] = Evaluated for pharmacokinetic parameter area under curve in rabbit at the dose 20 mg/kg (0-4 hr ); assay type: ADME, organism-based, Oryctolagus cuniculus; parameters: time < 4 hr, dose 20 mg/kg; details: in vivo
# Morganella morganii [28] = experiment: Antibacterial activity against Morganella morganii IID 602; assay type: functional
# [29] = Evaluated for pharmacokinetic parameter tmax in mouse at the dose 20 mg/kg was determined; assay type: ADME, organism-based; parameters: dose 20 mg/kg; details: in vivo
# [30] = Evaluated for pharmacokinetic parameter urine recovery in mouse at the dose 20 mg/kg (0-24 hr); assay type: ADME, organism-based; parameters: dose 20 mg/kg; details: read-out: UR
# [31] = Evaluated for pharmacokinetic parameter urine recovery in rabbit at the dose 20 mg/kg (0-24 hr); assay type: ADME, organism-based, Oryctolagus cuniculus; parameters: dose 20 mg/kg; details: read-out: UR
# Streptococcus pneumoniae = experiment: Antibacterial activity against Streptococcus pneumoniae IID 553 was determined; assay type: functional
# [32] = Evaluated for pharmacokinetic parameter area under curve in mouse at the dose 20 mg/kg (0-4 hr ); assay type: ADME, organism-based; parameters: time < 4 hr, dose 20 mg/kg; details: in vivo
# [33] = Evaluated for pharmacokinetic parameter area under curve in rat at the dose 50 mg/kg (0-8 hr ); assay type: ADME, organism-based; parameters: time < 8 hr, dose 50 mg/kg; details: in vivo
# Haemophilus influenzae = experiment: Antibacterial activity against Haemophilus influenzae ATCC 19418 was determined; assay type: functional
# [34] = Evaluated for pharmacokinetic parameter urine recovery in rat at the dose 50 mg/kg (0-24 hr); assay type: ADME, organism-based; parameters: dose 50 mg/kg; details: read-out: UR
# Micrococcus luteus [35] = experiment: Antibacterial activity against Micrococcus […] determined; assay type: functional
# [36] = Evaluated for pharmacokinetic parameter area under curve in rat at the dose 50 mg/kg (0-8 hr); assay type: ADME, organism-based; parameters: time < 8 hr, dose 50 mg/kg; details: in vivo
# Klebsiella pneumoniae [37] = experiment: Antibacterial activity against Klebsiella pneumoniae IFO 331 was determined; assay type: functional
Structure (SMILES),half-life [1] [h],Cmax [2] [ng/mL],MIC (Escherichia coli [16]) [µg/mL],MIC (Staphylococcus aureus [17]) [µg/mL],MIC (Serratia marcescens) [µg/mL],MIC (Escherichia coli [18]) [µg/mL],MIC (Morganella morganii [19]) [µg/mL],MIC (Providencia rettgeri) [µg/mL],MIC (Enterococcus hirae) [µg/mL],MIC [20] [µg/mL],MIC (Klebsiella pneumoniae [21]) [µg/mL],MIC (Proteus mirabilis) [µg/mL],MIC (Micrococcus luteus [22]) [µg/mL],MIC (Moraxella catarrhalis [23]) [µg/mL],MIC (Staphylococcus aureus [24]) [µg/mL],MIC (Pseudomonas aeruginosa) [µg/mL],MIC (Proteus vulgaris) [µg/mL],MIC (Enterobacter cloacae) [µg/mL],MIC (Klebsiella aerogenes) [µg/mL],MIC (Staphylococcus aureus [25]) [µg/mL],further results
CC(C)(C)C(=O)OCOC(=O)C1=C(/C=C\c2csnn2)CSC2C(NC(=O)/C(=N\O)c3csc(N)n3)C(=O)N12 (centres undefined),2.7,15200,,,,,,,,,,,,,,,,,,,Cmax [3]: 2400 ng/mL; dose excreted [4]: 9.5%; AUC at 4 h [5]: 62000 ng·h/mL; Cmax [6]: 20500 ng/mL; AUC at 8 h [7]: 37900 ng·h/mL; half-life [8]: 2.3 h; Tmax [9]: 1 h; dose excreted [10]: 42.8%; dose excreted [11]: 17.2%; AUC at 4 h [12]: 10500 ng·h/mL; half-life [13]: 1.8 h; Tmax [14]: 1 h; Tmax [15]: 0.5 h
Cc1nnsc1/C=C\C1=C(C(=O)O)N2C(=O)C(NC(=O)/C(=N\O)c3csc(N)n3)C2SC1 (centres undefined),,,0.2,0.2,0.78,0.1,0.05,≤ 0.006,25,0.2,0.05,0.1,,,,,,,,,
Cc1snnc1/C=C\C1=C(C(=O)O)N2C(=O)C(NC(=O)/C(=N\O)c3csc(N)n3)C2SC1 (centres undefined),,,0.2,0.2,0.78,0.39,0.05,≤ 0.006,25,0.39,0.025,0.39,0.025,0.05,0.2,> 100,0.05,0.39,0.78,0.39,
CO/N=C(\C(=O)NC1C(=O)N2C(C(=O)O)=C(/C=C\c3csnn3)CSC12)c1csc(N)n1 (centres undefined),,,0.39,0.78,0.39,0.39,0.1,≤ 0.006,100,0.2,0.012,0.1,0.05,,0.39,50,≤ 0.006,0.39,0.78,0.78,MIC (Moraxella catarrhalis [26]): 0.025 µg/mL
Nc1nc(/C(=N/O)C(=O)NC2C(=O)N3C(C(=O)O)=C(/C=C\c4csnn4)CSC23)cs1 (centres undefined),0.7,6000,0.1,0.1,0.39,0.1,,≤ 0.006,12.5,0.05,0.012,0.05,0.012,0.05,0.1,> 100,0.05,0.2,0.2,0.39,AUC at 4 h [27]: 9700 ng·h/mL; Cmax [3]: 2000 ng/mL; MIC (Morganella morganii [28]): 0.025 µg/mL; Tmax [29]: 2 h; dose excreted [30]: 1.9%; Cmax [6]: 1500 ng/mL; dose excreted [31]: 17.4%; MIC (Streptococcus pneumoniae): 0.05 µg/mL; half-life [8]: 2.2 h; Tmax [9]: 2 h; half-life [13]: 4.4 h; AUC at 4 h [32]: 4700 ng·h/mL; AUC at 8 h [33]: 19800 ng·h/mL; MIC (Haemophilus influenzae): 0.05 µg/mL; Tmax [14]: 2 h; dose excreted [34]: 3.5%
CO/N=C(\C(=O)NC1C(=O)N2C(C(=O)O)=C(/C=C\c3scnc3C)CSC12)c1csc(N)n1 (centres undefined),,,0.39,0.78,0.39,0.39,0.2,0.025,> 100,0.39,0.025,0.39,0.025,≤ 0.006,0.78,12.5,≤ 0.006,0.78,0.78,0.78,
C=CC1=C(C(=O)O)N2C(=O)[C@@H](NC(=O)/C(=N\O)c3csc(N)n3)[C@H]2SC1 [CEFDINIR],0.6,6000,0.39,0.39,1.56,0.39,6.25,≤ 0.006,100,0.1,,0.2,,0.2,0.2,> 100,0.39,0.78,1.56,0.39,AUC at 4 h [27]: 64200 ng·h/mL; Cmax [3]: 5800 ng/mL; dose excreted [4]: 13.2%; AUC at 4 h [5]: 10000 ng·h/mL; Cmax [6]: 2500 ng/mL; MIC (Micrococcus luteus [35]): 0.05 µg/mL; AUC at 8 h [36]: 13200 ng·h/mL; MIC (Streptococcus pneumoniae): 0.1 µg/mL; half-life [8]: 1.9 h; Tmax [9]: 2 h; dose excreted [10]: 10%; dose excreted [11]: 64.2%; MIC (Klebsiella pneumoniae [37]): 0.1 µg/mL; half-life [13]: 1.5 h; MIC (Haemophilus influenzae): 0.39 µg/mL; Tmax [14]: 1 h; Tmax [15]: 1 h
